Columns and labels:
[1] = biological target: T1, human SGLT2 (Homo sapiens, UniProt P31639); experiment: Methyl-α-D-[U-14C]glucopyranoside uptake assay in HEK293.ETN cells stably expressing human SGLT2; assay type: cell-based; settings: 1.5 h incubation
T1 construct: A full-length cDNA clone expressing human SGLT2
T1 sequence (P31639 1-672): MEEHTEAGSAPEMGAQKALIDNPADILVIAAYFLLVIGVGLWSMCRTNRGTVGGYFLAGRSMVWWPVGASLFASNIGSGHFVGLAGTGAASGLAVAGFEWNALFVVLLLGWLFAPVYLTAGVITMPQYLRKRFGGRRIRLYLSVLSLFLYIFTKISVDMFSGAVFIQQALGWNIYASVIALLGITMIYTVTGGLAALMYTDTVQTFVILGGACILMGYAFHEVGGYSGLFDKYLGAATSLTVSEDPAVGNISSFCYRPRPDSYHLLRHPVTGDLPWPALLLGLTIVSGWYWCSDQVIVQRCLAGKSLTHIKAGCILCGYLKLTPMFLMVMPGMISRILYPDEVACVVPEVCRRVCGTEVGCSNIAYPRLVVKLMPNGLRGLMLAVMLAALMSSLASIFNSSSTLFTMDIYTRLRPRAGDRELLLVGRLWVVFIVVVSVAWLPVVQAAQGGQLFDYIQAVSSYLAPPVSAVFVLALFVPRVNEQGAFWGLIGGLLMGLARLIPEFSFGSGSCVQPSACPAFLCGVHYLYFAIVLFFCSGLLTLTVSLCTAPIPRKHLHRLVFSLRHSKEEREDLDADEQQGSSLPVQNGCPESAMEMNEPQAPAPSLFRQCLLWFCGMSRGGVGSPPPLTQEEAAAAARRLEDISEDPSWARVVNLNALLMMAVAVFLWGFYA
Excerpt: A full-length cDNA clone expressing human SGLT2 (GenScript Corporation) was subcloned into Hind III and Not I sites of pEAK15 expression vector. Clones harboring the cDNA inserts were identified by restriction analysis.
Plasmid containing human SGLT2 was linearized with Nsi I and purified by agarose gel electrophoresis. Using Lipofectamine 2000 Transfection Reagent (Invitrogen Corporation), DNA was transfected into HEK293.ETN cells and cultured in Dulbecco's Modified Eagle Medium (DMEM) containing 10% fetal bovine serum (FBS) at 37° C. under 5% CO2 for 24 h. Transfectants were selected in the same growth medium supplemented with puromycin (Invitrogen Corporation) for two weeks. Puromycin-resistant cells were recovered and seeded on a fresh 96-well plate (single cell per well) and cultured in the presence of puromycin until cells became confluent. Puromycin-resistant clones were evaluated for SGLT2 activity in the methyl-α-D-[U-^14C]glucopyranoside uptake assay described below.
(§1) Cells expressing SGLT1 or SGLT2 were seeded on 96-well ScintiPlate scintillating plates (PerkinElmer, Inc.) in DMEM containing 10% FBS (1×10^5 cells per well in 100 μl medium) incubated at 37° C. under 5% CO2 for 48 h prior to the assay. Cells were washed twice with 150 μl of either sodium buffer (137 mM NaCl, 5.4 mM KCl, 2.8 mM CaCl2, 1.2 mM MgCl2, 10 mM tris(hydroxymethyl)aminomethane/N^2-hydroxyethylpiperazine-N′-ethanesulfonic acid [Tris/Hepes], pH 7.2) or sodium-free buffer (137 mM N-methyl-glucamine, 5.4 mM KCl, 2.8 mM CaCl2, 1.2 mM MgCl2, 10 mM Tris/Hepes, pH 7.2). Test compound in 50 μl each of sodium or sodium-free buffer containing 40 μCi/ml methyl-α-D-[U-^14C]glucopyranoside (Amersham Biosciences/GE Healthcare), either with (symbols in parentheses) or without (symbols without parentheses) 25% human serum, was added per well of a 96-well plate and incubated at 37° C. with shaking for either 2 h (SGLT1 assay) or 1.5 h (SGLT2 assay). Cells were washed twice with 150 μl of wash buffer (137 mM N-methylglucamine, 10 mM Tris/Hepes, pH 7.2) and methyl-α-D-[U-^14C]glucopyranoside uptake was quantitated using a TopCount scintillation counter (PerkinElmer, Inc.). Sodium-dependent glucopyranoside uptake was measured by subtracting the values obtained with sodium-free buffer from those obtained using sodium buffer (average of triplicate determinations).

[2] = biological target: T2, human SGLT1 (Homo sapiens, UniProt P13866); experiment: Methyl-α-D-[U-14C]glucopyranoside uptake assay in COS-7 cells expressing human SGLT1; assay type: cell-based; settings: 2 h incubation
T2 construct: Full-length human SGLT1 cDNA on pDream2.1 expression vector; host or cells: COS-7 cells (American Type Culture Collection)
T2 sequence (P13866 1-664): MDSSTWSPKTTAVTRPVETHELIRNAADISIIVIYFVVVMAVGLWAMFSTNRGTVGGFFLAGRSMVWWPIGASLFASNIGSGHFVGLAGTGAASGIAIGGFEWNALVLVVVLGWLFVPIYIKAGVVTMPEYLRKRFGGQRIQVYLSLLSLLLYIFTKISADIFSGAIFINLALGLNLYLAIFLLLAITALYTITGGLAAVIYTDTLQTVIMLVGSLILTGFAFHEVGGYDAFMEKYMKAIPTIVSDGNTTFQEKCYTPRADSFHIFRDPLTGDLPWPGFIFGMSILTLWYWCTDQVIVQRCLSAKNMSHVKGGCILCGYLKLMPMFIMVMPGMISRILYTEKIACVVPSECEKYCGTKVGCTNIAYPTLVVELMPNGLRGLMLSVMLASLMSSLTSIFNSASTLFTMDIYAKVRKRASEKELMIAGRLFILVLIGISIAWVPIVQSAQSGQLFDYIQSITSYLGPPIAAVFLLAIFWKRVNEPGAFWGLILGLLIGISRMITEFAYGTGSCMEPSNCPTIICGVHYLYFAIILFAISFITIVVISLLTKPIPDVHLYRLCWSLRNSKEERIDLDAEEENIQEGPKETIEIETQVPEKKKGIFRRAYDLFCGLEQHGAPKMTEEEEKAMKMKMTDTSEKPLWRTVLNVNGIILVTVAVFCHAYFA
Protocol: Full-length human SGLT1 cDNA on pDream2.1 expression vector was obtained from GenScript Corporation and propagated in Escherichia coli strain DH5α using Luria-Bertani (LB) medium containing ampicillin. Plasmid DNA was isolated using the QIAGEN Plasmid Midi Kit (QIAGEN Inc.). […] Transfected cells were stored in DMEM containing 10% dimethyl sulfoxide (DMSO) at −80° C.
as §1

[3] = without human serum (symbols without parentheses)
[4] = incubation with 25% human serum (symbols in parentheses)

| IC50 [1, 3] [µM] | IC50 [2, 3] [µM] | IC50 [1, 4] [µM] | IC50 [2, 4] [µM] | Compound |
| --- | --- | --- | --- | --- |
| – | – | < 1 | 1 to 10 | OC[C@H]1O[C@@H](c2ccc(Cl)c(Cc3ccc(OCCOCC(F)(F)F)cc3)c2)[C@H](O)[C@@H](O)[C@@H]1O [Compound BT, (2S,3R,4R,5S,6R)-2-(4-chloro-3-(4-(2-(2,2,2-trifluoroethoxy)ethoxy)benzyl)phenyl)-6-(hydroxymethyl)tetrahydro-2H-pyran-3,4,5-triol] |
| – | – | < 1 | 1 to 10 | C#CCOCCOc1ccc(Cc2cc([C@@H]3O[C@H](CO)[C@@H](O)[C@H](O)[C@H]3O)ccc2Cl)cc1 [Compound R, (2S,3R,4R,5S,6R)-2-(4-chloro-3-(4-(2-(prop-2-ynyloxy)ethoxy)benzyl)phenyl)-6-(hydroxymethyl)tetrahydro-2H-pyran-3,4,5-triol] |
| – | – | < 1 | 1 to 10 | OC[C@H]1O[C@@H](c2ccc(Cl)c(Cc3ccc(OCCOC4CCCC4)cc3)c2)[C@H](O)[C@@H](O)[C@@H]1O [Compound AD, (2S,3R,4R,5S,6R)-2-(4-chloro-3-(4-(2-(cyclopentyloxy)ethoxy)benzyl)phenyl)-6-(hydroxymethyl)tetrahydro-2H-pyran-3,4,5-triol] |
| – | – | < 1 | > 10 | OC[C@H]1O[C@@H](c2ccc(Cl)c(Cc3ccc(COC4CC4)cc3)c2)[C@H](O)[C@@H](O)[C@@H]1O [Compound CX, (2S,3R,4R,5S,6R)-2-(4-chloro-3-(4-(cyclopropoxymethyl)benzyl)phenyl)-6-(hydroxymethyl)tetrahydro-2H-pyran-3,4,5-triol] |
| – | – | < 1 | 1 to 10 | C=CCOCCOc1ccc(Cc2cc([C@@H]3O[C@H](CO)[C@@H](O)[C@H](O)[C@H]3O)ccc2Cl)cc1 [Compound P, (2S,3R,4R,5S,6R)-2-(3-(4-(2-(allyloxy)ethoxy)benzyl)-4-chlorophenyl)-6-(hydroxymethyl)tetrahydro-2H-pyran-3,4,5-triol] |
| – | – | < 1 | > 10 | COCC#CCOc1ccc(Cc2cc([C@@H]3O[C@H](CO)[C@@H](O)[C@H](O)[C@H]3O)ccc2Cl)cc1 [Compound Z, (2S,3R,4R,5S,6R)-2-(4-chloro-3-(4-(4-methoxybut-2-ynyloxy)benzyl)phenyl)-6-(hydroxymethyl)tetrahydro-2H-pyran-3,4,5-triol] |
| – | – | < 1 | > 10 | OC[C@H]1O[C@@H](c2ccc(Cl)c(Cc3ccc(CCOC(F)F)cc3)c2)[C@H](O)[C@@H](O)[C@@H]1O [Compound BN, (2S,3R,4R,5S,6R)-2-(4-chloro-3-(4-(2-(difluoromethoxy)ethyl)benzyl)phenyl)-6-(hydroxymethyl)tetrahydro-2H-pyran-3,4,5-triol] |
| – | – | < 1 | 1 to 10 | OC[C@H]1O[C@@H](c2ccc(Cl)c(Cc3ccc(OCCO[C@H]4CCOC4)cc3)c2)[C@H](O)[C@@H](O)[C@@H]1O [Compound CK, (2S,3R,4R,5S,6R)-2-(4-chloro-3-(4-(2-((S)-tetrahydrofuran-3-yloxy)ethoxy)benzyl)phenyl)-6-(hydroxymethyl)tetrahydro-2H-pyran-3,4,5-triol] |

More lines, now with the values behind:

| Compound | IC50 [1, 3] [µM] | IC50 [2, 3] [µM] | IC50 [1, 4] [µM] | IC50 [2, 4] [µM] |
| --- | --- | --- | --- | --- |
| OC[C@H]1O[C@@H](c2ccc(Cl)c(Cc3ccc(OCCOCC(F)F)cc3)c2)[C@H](O)[C@@H](O)[C@@H]1O [Compound CF, (2S,3R,4R,5S,6R)-2-(4-chloro-3-(4-(2-(2,2-difluoroethoxy)ethoxy)benzyl)phenyl)-6-(hydroxymethyl)tetrahydro-2H-pyran-3,4,5-triol] | < 1 | 1 to 10 | – | – |
| OC[C@H]1O[C@@H](c2ccc(Cl)c(Cc3ccc(OCCOCCF)cc3)c2)[C@H](O)[C@@H](O)[C@@H]1O [Compound CC, (2S,3R,4R,5S,6R)-2-(4-chloro-3-(4-(2-(2-fluoroethoxy)ethoxy)benzyl)phenyl)-6-(hydroxymethyl)tetrahydro-2H-pyran-3,4,5-triol] | < 1 | 1 to 10 | – | – |
| COCCOCCOc1ccc(Cc2cc([C@@H]3O[C@H](CO)[C@@H](O)[C@H](O)[C@H]3O)ccc2Cl)cc1 [Compound M, (2S,3R,4R,5S,6R)-2-(4-chloro-3-(4-(2-(2-methoxyethoxy)ethoxy)benzyl)phenyl)-6-(hydroxymethyl)tetrahydro-2H-pyran-3,4,5-triol] | < 1 | 1 to 10 | – | – |
| OC[C@H]1O[C@@H](c2ccc(Cl)c(Cc3ccc(OCCOC4CC4)cc3)c2)[C@H](O)[C@@H](O)[C@@H]1O [Compound BQ, (2S,3R,4R,5S,6R)-2-(4-chloro-3-(4-(2-cyclopropoxyethoxy)benzyl)phenyl)-6-(hydroxymethyl)tetrahydro-2H-pyran-3,4,5-triol] | – | – | < 1 | 1 to 10 |
| OC[C@H]1O[C@@H](c2ccc(Cl)c(Cc3ccc(OCCOCCN4CCCC4)cc3)c2)[C@H](O)[C@@H](O)[C@@H]1O [Compound CH, (2S,3R,4R,5S,6R)-2-(4-chloro-3-(4-(2-(2-(pyrrolidin-1-yl)ethoxy)ethoxy)benzyl)phenyl)-6-(hydroxymethyl)tetrahydro-2H-pyran-3,4,5-triol] | – | – | < 1 | 1 to 10 |
| OCC#CCOc1ccc(Cc2cc([C@@H]3O[C@H](CO)[C@@H](O)[C@H](O)[C@H]3O)ccc2Cl)cc1 [Compound X, (2S,3R,4R,5S,6R)-2-(4-chloro-3-(4-(4-hydroxybut-2-ynyloxy)benzyl)phenyl)-6-(hydroxymethyl)tetrahydro-2H-pyran-3,4,5-triol] | – | – | < 1 | 1 to 10 |
| OC[C@H]1O[C@@H](c2ccc(Cl)c(Cc3ccc(CCOC4CC4)cc3)c2)[C@H](O)[C@@H](O)[C@@H]1O [Compound CT, (2S,3R,4R,5S,6R)-2-(4-chloro-3-(4-(2-cyclopropoxyethyl)benzyl)phenyl)-6-(hydroxymethyl)tetrahydro-2H-pyran-3,4,5-triol] | – | – | < 1 | > 10 |
| OC[C@H]1O[C@@H](c2ccc(Cl)c(Cc3ccc(OCC#CC4CC4)cc3)c2)[C@H](O)[C@@H](O)[C@@H]1O [Compound AV, (2S,3R,4R,5S,6R)-2-(4-chloro-3-(4-(3-cyclopropylprop-2-ynyloxy)benzyl)phenyl)-6-(hydroxymethyl)tetrahydro-2H-pyran-3,4,5-triol] | – | – | < 1 | > 10 |
